Source: PubChem BioAssay (NCI)
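Five compound concentrations were applied to cells in 96-well plates for 48 hours; endpoints were derived by simple linear interpolation of the resulting dose-response curve. GI50 = concentration required for 50% inhibition of growth. TGI marks complete inhibition of growth.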

Experiments:
Experiment in all cases: DTP human tumour cell line panel, 48 h
HT29 colon = system: HT29 colon
HCC-2998 colon = system: HCC-2998 colon
SN12C renal = system: SN12C renal
SNB-19 CNS = system: SNB-19 CNS
MCF7 breast = system: MCF7 breast
NCI/ADR-RES ovarian = system: NCI/ADR-RES ovarian
LOX IMVI melanoma = system: LOX IMVI melanoma
CCRF-CEM leukemia = system: CCRF-CEM leukemia
NCI-H226 lung = system: NCI-H226 lung
UACC-257 melanoma = system: UACC-257 melanoma
CAKI-1 renal = system: CAKI-1 renal
NCI-H23 lung = system: NCI-H23 lung
MDA-MB-435 = system: MDA-MB-435
SK-MEL-5 melanoma = system: SK-MEL-5 melanoma
SW-620 colon = system: SW-620 colon
UACC-62 melanoma = system: UACC-62 melanoma
SF-295 CNS = system: SF-295 CNS
HOP-62 NSCLC = system: HOP-62 NSCLC
T-47D breast = system: T-47D breast
DU-145 prostate = system: DU-145 prostate
RPMI-8226 leukemia = system: RPMI-8226 leukemia
SK-MEL-28 melanoma = system: SK-MEL-28 melanoma
NCI-H522 lung = system: NCI-H522 lung
KM12 colon = system: KM12 colon
OVCAR-8 ovarian = system: OVCAR-8 ovarian
MOLT-4 leukemia = system: MOLT-4 leukemia
SNB-75 CNS = system: SNB-75 CNS
IGROV1 ovarian = system: IGROV1 ovarian
HOP-92 NSCLC = system: HOP-92 NSCLC
786-0 renal = system: 786-0 renal
OVCAR-5 ovarian = system: OVCAR-5 ovarian
HCT-15 colon = system: HCT-15 colon
M14 melanoma = system: M14 melanoma
HL-60(TB) leukemia = system: HL-60(TB) leukemia
PC-3 prostate = system: PC-3 prostate
EKVX NSCLC = system: EKVX NSCLC
OVCAR-3 ovarian = system: OVCAR-3 ovarian
COLO 205 colon = system: COLO 205 colon
SF-268 CNS = system: SF-268 CNS
HCT-116 colon = system: HCT-116 colon
U251 CNS = system: U251 CNS
NCI-H460 lung = system: NCI-H460 lung
SK-MEL-2 melanoma = system: SK-MEL-2 melanoma
MDA-MB-231 breast = system: MDA-MB-231 breast
RXF 393 renal = system: RXF 393 renal
OVCAR-4 ovarian = system: OVCAR-4 ovarian
K-562 leukemia = system: K-562 leukemia
HS 578T breast = system: HS 578T breast
BT-549 breast = system: BT-549 breast
UO-31 renal = system: UO-31 renal
A549 NSCLC = system: A549 NSCLC
ACHN renal = system: ACHN renal
SR leukemia = system: SR leukemia
MALME-3M melanoma = system: MALME-3M melanoma
SK-OV-3 ovarian = system: SK-OV-3 ovarian
TK-10 renal = system: TK-10 renal
A498 renal = system: A498 renal

CC1=C2C(=C[C@@](C)(COS(C)(=O)=O)[C@@H]2O)C(=O)[C@](C)(O)C12CC2
GI50 (HT29 colon): 414 nM
TGI (HT29 colon): 28600 nM
GI50 (HCC-2998 colon): 648 nM
TGI (HCC-2998 colon): 2870 nM
GI50 (SN12C renal): 1990 nM
TGI (SN12C renal): 10700 nM
GI50 (SNB-19 CNS): 477 nM
TGI (SNB-19 CNS): 6010 nM
GI50 (MCF7 breast): 238 nM
TGI (MCF7 breast): 2550 nM
GI50 (NCI/ADR-RES ovarian): 762 nM
TGI (NCI/ADR-RES ovarian): 5970 nM
GI50 (LOX IMVI melanoma): 365 nM
TGI (LOX IMVI melanoma): 1690 nM
GI50 (CCRF-CEM leukemia): 344 nM
TGI (CCRF-CEM leukemia): > 100000 nM
GI50 (NCI-H226 lung): 2120 nM
TGI (NCI-H226 lung): 6170 nM
GI50 (UACC-257 melanoma): 2390 nM
TGI (UACC-257 melanoma): 6900 nM
GI50 (CAKI-1 renal): 406 nM
TGI (CAKI-1 renal): 5360 nM
GI50 (NCI-H23 lung): 350 nM
TGI (NCI-H23 lung): 1560 nM
GI50 (MDA-MB-435): 757 nM
TGI (MDA-MB-435): 2210 nM
GI50 (SK-MEL-5 melanoma): 272 nM
TGI (SK-MEL-5 melanoma): 755 nM
GI50 (SW-620 colon): 320 nM
TGI (SW-620 colon): > 100000 nM
GI50 (UACC-62 melanoma): 257 nM
TGI (UACC-62 melanoma): 731 nM
GI50 (SF-295 CNS): 293 nM
TGI (SF-295 CNS): 1280 nM
GI50 (HOP-62 NSCLC): 371 nM
TGI (HOP-62 NSCLC): 2040 nM
GI50 (T-47D breast): 1790 nM
TGI (T-47D breast): 7780 nM
GI50 (DU-145 prostate): 366 nM
TGI (DU-145 prostate): 5040 nM
GI50 (RPMI-8226 leukemia): 3660 nM
TGI (RPMI-8226 leukemia): 52000 nM
GI50 (SK-MEL-28 melanoma): 678 nM
TGI (SK-MEL-28 melanoma): 2500 nM
GI50 (NCI-H522 lung): 347 nM
TGI (NCI-H522 lung): 1560 nM
GI50 (KM12 colon): 579 nM
TGI (KM12 colon): 7130 nM
GI50 (OVCAR-8 ovarian): 1740 nM
TGI (OVCAR-8 ovarian): 12000 nM
GI50 (MOLT-4 leukemia): 331 nM
TGI (MOLT-4 leukemia): > 100000 nM
GI50 (SNB-75 CNS): 1370 nM
TGI (SNB-75 CNS): 2860 nM
GI50 (IGROV1 ovarian): 556 nM
TGI (IGROV1 ovarian): 5670 nM
GI50 (HOP-92 NSCLC): 357 nM
TGI (HOP-92 NSCLC): 1480 nM
GI50 (786-0 renal): 1960 nM
TGI (786-0 renal): 6740 nM
GI50 (OVCAR-5 ovarian): 382 nM
TGI (OVCAR-5 ovarian): 3060 nM
GI50 (HCT-15 colon): 443 nM
TGI (HCT-15 colon): 5140 nM
GI50 (M14 melanoma): 717 nM
TGI (M14 melanoma): 2540 nM
GI50 (HL-60(TB) leukemia): 466 nM
TGI (HL-60(TB) leukemia): 4530 nM
GI50 (PC-3 prostate): 624 nM
TGI (PC-3 prostate): 4820 nM
GI50 (EKVX NSCLC): 1660 nM
TGI (EKVX NSCLC): 5220 nM
GI50 (OVCAR-3 ovarian): 544 nM
TGI (OVCAR-3 ovarian): 4530 nM
GI50 (COLO 205 colon): 761 nM
TGI (COLO 205 colon): 2840 nM
GI50 (SF-268 CNS): 333 nM
TGI (SF-268 CNS): 2290 nM
GI50 (HCT-116 colon): 315 nM
TGI (HCT-116 colon): > 31700 nM
GI50 (U251 CNS): 286 nM
TGI (U251 CNS): 1340 nM
GI50 (NCI-H460 lung): 216 nM
TGI (NCI-H460 lung): 517 nM
GI50 (SK-MEL-2 melanoma): 289 nM
TGI (SK-MEL-2 melanoma): 793 nM
GI50 (MDA-MB-231 breast): 1340 nM
TGI (MDA-MB-231 breast): 5990 nM
GI50 (RXF 393 renal): 335 nM
TGI (RXF 393 renal): 930 nM
GI50 (OVCAR-4 ovarian): 1450 nM
TGI (OVCAR-4 ovarian): 5680 nM
GI50 (K-562 leukemia): 478 nM
TGI (K-562 leukemia): > 100000 nM
GI50 (HS 578T breast): 1770 nM
TGI (HS 578T breast): 4780 nM
GI50 (BT-549 breast): 632 nM
TGI (BT-549 breast): 2470 nM
GI50 (UO-31 renal): 1570 nM
TGI (UO-31 renal): 5520 nM
GI50 (A549 NSCLC): 604 nM
TGI (A549 NSCLC): 6920 nM
GI50 (ACHN renal): 349 nM
TGI (ACHN renal): 3550 nM
GI50 (SR leukemia): 360 nM
TGI (SR leukemia): > 100000 nM
GI50 (MALME-3M melanoma): 459 nM
TGI (MALME-3M melanoma): 1760 nM
GI50 (SK-OV-3 ovarian): 447 nM
TGI (SK-OV-3 ovarian): 2220 nM
GI50 (TK-10 renal): 2220 nM
TGI (TK-10 renal): 7140 nM
TGI (A498 renal): 694 nM
